{"source": "patent US12491187B2", "about": "“Use of MCT1 inhibitors to enhance insulin sensitivity” (H. LEE MOFFIT CANCER CENTER AND RESEARCH INSTITUTE, INC., priority 2022, dated 2025)", "format_in_all_cases": "cell-based, murine", "key": {"[1]": {"tested_on": "3T3-L1 cells", "assay": "Immunoblotting of adipogenic proteins during differentiation", "conditions": "differentiated in the presence of 1 μM AZD3965", "protocol": "Differentiation Protocol: The 3T3-L1 differentiation protocol was adapted from Green and Meuth (1974) (Zebisch, K, et al. Anal. Biochem. 2012 425:88-90; Green, H, et al. Cell 1974 3:127-133). Cells were seeded at approximately 80% confluency and allowed to reach confluency prior to induction of differentiation. 1-2 days post confluency, growth media was changed to ‘day 0’ media consisting of media supplemented with 0.5 mM 1-methyl-3-isobutyl xanthine (IBMX), 1 µM dexamethasone, and 10 μg/mL insulin. On ‘day 3’ media was changed to growth media with 10 μg/mL insulin only, and on ‘day 6’ media was replaced with normal growth media. After day 6, the complete media was refreshed every 2 days. Using Oil Red O staining, RT-qPCR and immunoblotting, it was determined that 3T3-L1 cells were fully differentiated into lipid-laden adipocytes by ‘day 8’ of the protocol, as reported by others (Petersen, C, et al. Sci. Rep. 2017 7:13101; Mangum, L H, et al. Toxicol. Lett. 2015 238:65-71). All differentiation experiments were performed on cells between passage 4 and 6 to ensure differentiation efficiency was consistent.\nImmunoblotting: For the collection of membrane bound proteins (i.e., MCT1), cells were lysed and the membrane fraction of protein was isolated as previously described (Sadler, J B A, et al. Preparation of a total membrane fraction from 3T3-L1 adipocytes (Cold Spring Harb. Protoc. 2016, 2016, pdb-prot083675). Briefly, cells were lysed with ice cold HES buffer (250 mM sucrose, 20 mM HEPES, 1 mM EDTA, pH7.4) containing a cocktail of protease and phosphatase inhibitors (Roche Diagnostic) and centrifuged for 5 min (500 g at 4° C.) to pellet out nuclei. The remaining supernatant (containing cytosolic and membrane bound proteins) was collected. […] For all samples, protein concentration of the lysates was measured using the BCA Protein Assay Kit (Pierce Biotechnologies). […] Bands were quantified using Image Studio™ (LI-COR Biosciences)."}, "[2]": {"tested_on": "differentiated 3T3-L1 (WT) cells", "conditions": "mouse", "protocol": "Cell Viability: 3T3-L1 cells were seeded and differentiated in white, clear bottom, 384-well plates (Corning®). Following differentiation, adipocytes were treated for 24, 48 or 72 hr with varying concentrations of AZD3965 ranging from 0.1 nM to 10 µM. Following the indicated incubation period, cells were assayed with CytoTox-Glo™ (Promega®) according the manufacturer's instructions to assess cell toxicity. Briefly, this assay is a luminescent cytotoxicity kit that measures the relative number of dead cells in a population through the addition of a cell impermeant luminogenic substrate which luminesces in the presence of ‘dead-cell protease’, a protein released from membrane-compromised, dead cells. Luminescence was read on a spectrophotometer (FlexStation 3; Molecular Devices). The data generated were normalized by dividing the relative luminescence units (RLU) collected for each experimental condition by the average RLU of ‘basal’ untreated cells considered to be 100% viable."}, "[3]": {"tested_on": "differentiated 3T3-L1 cells", "assay": "Proliferation (CyQUANT NF) of differentiated adipocytes", "conditions": "72 hr treatment, all concentrations ≥1 μM", "protocol": "Proliferation: 3T3-L1 cells were seeded and differentiated in black clear bottom 96-well plates (Corning®). After differentiation, wells were treated with vehicle or AZD3965 concentrations ranging from 10 nM to 10 µM for 24 hr, 48 hr or 72 hr as indicated. Cell viability was measured at the end of each treatment time using the CyQUANT™ NF Cell Proliferation assay (Invitrogen™) according to the manufacturer's protocols."}, "[4]": {"tested_on": "differentiated 3T3-L1 (WT) cells", "assay": "Glucose uptake (Glucose Uptake-Glo) in WT adipocytes", "conditions": "for insulin-stimulated glucose uptake: then 175 nM insulin 30 minutes", "protocol": "Glucose Uptake: 3T3-L1 cells were seeded and differentiated in clear bottom 96-well plates (Corning®). After differentiation, cells were treated with or without […] AZD3965 for 24 hr, 48 hr or 72 hr as illustrated in FIG. 7 (schematic outline of experimental procedure). The cells were incubated in serum free media the night before performing the assay. The following day/morning, media was changed to serum and glucose free media for 2 hr prior to the experiment. Cells were then stimulated with 175 nM Insulin or vehicle (PBS) for 30 minutes. Glucose Uptake was measured using the Glucose Uptake-Glo™ Assay (Promega®) according to the manufacturer's protocol. The data generated were normalized by dividing the relative luminescence units (RLU) measured in insulin stimulated wells by vehicle treated controls. The aforementioned experiment was repeated in the presence of the CDK1 inhibitor, RO-3306 (10 μM), where indicated (FIG. 5C)."}}, "data": [{"molecule": "Cc1[nH]nc(C(F)(F)F)c1Cc1sc2c(c1C(=O)N1C[C@](C)(O)CO1)c(=O)n(C)c(=O)n2C(C)C", "note": "[AZD3965, 5-[[(4S)-4-hydroxy-4-methyl-2-isoxazolidinyl]carbonyl]-3-methyl-1-(1-methylethyl)-6-[[5-methyl-3-(trifluoromethyl)-1H-pyrazol-4-yl]methyl]-thieno[2,3-d]pyrimidine-2,4 (1H, 3H)-dione]", "values": [{"measurement": "FABP4 protein expression during differentiation", "setting": "[1]", "value": "significantly attenuated"}, {"measurement": "HSL protein expression during differentiation", "setting": "[1]", "value": "significantly attenuated"}, {"measurement": "PPARγ protein expression during differentiation", "setting": "[1]", "value": "significantly attenuated"}, {"measurement": "cytotoxicity / cell viability", "setting": "[2]", "value": "not due to AZD3965-induced cytotoxicity"}, {"measurement": "total cell number (proliferation)", "setting": "[3]", "value": "significant increase in total cell number"}, {"measurement": "insulin-stimulated glucose uptake", "setting": "[4]; 1 μM for 24 hr", "value": "did not reach statistical significance"}, {"measurement": "insulin-stimulated glucose uptake", "setting": "[4]; 1 μM for 48 hr and 72 hr", "value": "significant increase"}, {"measurement": "basal, non-insulin stimulated glucose uptake", "setting": "[4]; 1 μM, 24-72 hr", "value": "no impact"}]}]}
